Series [1] is classed as physicochemical. To be noted: for Area %: 100° C. under nitrogen, in water. How it is done: A sample from the above example was heated to 100° C. under nitrogen for 30 hours to examine the stability of the drug under extended distillation times required on scale-up. No new impurities were evident in the area % chromatogram and the assay of the fluticasone propionate appears unaffected by extended periods at 100° C. in water.

A short description of series [2]: Solubility by w/w % assay of saturated solutions in various solvents. As to conditions: saturated solution, 21-23° C. Format: physicochemical. The procedure:
The solubility of fluticasone propionate was measured by w/w % assay of saturated solutions in a variety of solvents at 21-23° C.

Series [3] in a line: Stability to distillation at atmospheric pressure (HPLC area % profile). It is filed as physicochemical. To be noted: Example 5. The procedure: In this example, a development of example 4, the distillation was performed at atmospheric pressure and the first distillation was halted when the pot temperature reached 99° C. […] A further 25 volumes of water were added and the distillation continued until 25 volumes of distillate had been removed.

SMILES strings stand for the structures. Where two headings read alike, the source gives them in different places.

`CCC(=O)O[C@]1(C(=O)SCF)[C@H](C)C[C@H]2[C@@H]3C[C@H](F)C4=CC(=O)C=C[C@]4(C)[C@@]3(F)[C@@H](O)C[C@@]21C` [fluticasone propionate]: in series [1], the “Time chemically stable to distillation at 100° C.” value is given as “at least 30 hours”. Moreover, the “Assay of fluticasone propionate after extended periods at 100° C. in water” value in series [1] (100° C. in water, up to 30 hours, no new impurities in area % chromatogram) is “unaffected”. Further, the Area % in series [1] (Time 0 hr) came out at 99.2%; in series [1] (Time 6 hr), 99.4%; in series [1] (Time 24 hr) it was 99.5%; in series [1] (Time 30 hr), 99.4%. Besides, the “w/w % solubility of fluticasone propionate” value in series [2] (Acetone) amounted to 5.7 w/w %; in series [2] (Ethanol), 0.4 w/w %; in series [2] (Ethyl acetate), 0.2 w/w %; in series [2] (Isopropanol), 0.3 w/w %; in series [2] (tBME), 1.2 w/w %. Further, the “Stability to distillation at 100° C. (HPLC area % profile, starting solid to final aqueous slurry)” value in series [3] was “stable”.

Values taken from patent US20050222108A1, “Solvent-based sterilisation of pharmaceuticals” (priority 2002, published 2005).
